Test [1] is filed under the species Cavia porcellus. Nature of the test: Compound was tested for relaxant activity in trachea for asthma in male guinea pigs. Format: functional.
The species named for test [2] is Cavia porcellus. Nature of the test: Compound was tested for relaxant activity in urinary bladder for urinary incontinence in male guinea pigs. The class given is functional.
The test system of a further test is Canis familiaris. Nature of the test: Compound was tested for the antihypertensive activity in dogs by intravenous injection at a dose of 30 ug/kg. Format: functional, Canis lupus familiaris.
Test [3] is filed under the species Cavia porcellus. In words: Compound was tested for relaxant activity in taenia caecum. The class given is functional. The conditions noted are these: read-out: ED50 (the source's name).
The species named for test [4] is Cavia porcellus. In words: Compound was tested for relaxant activity in urinary bladder for urinary incontinence in male guinea pigs at 1 uM concentration. The arrangement: scale not given: the % may be the effect or the level left. Format: functional.

SMILES strings stand for the structures. pEC50: −log10 of the molar value.

`CCC(C)(CC)/N=C(\NC#N)Nc1cc(Cl)cc(Cl)c1`: the ED50 in the test listed under Cavia porcellus [1] was found to be 440 nM; in the test filed under Cavia porcellus [2] it was 13 nM.

In turn, `CCC(C)(CC)/N=C(\NC#N)Nc1cc(Cl)cc(C#N)c1` returned an AHA with Canis familiaris of -25.2 delta mmHg. Also, the ED50 in the test listed under Cavia porcellus [1] worked out at 190 nM; in the test filed under Cavia porcellus [2], 16 nM. Also, the pEC50 in the test listed under Cavia porcellus [3] is 7.00.

As to `CCC(C)(C)/N=C(\NC#N)Nc1cc(F)cc(Br)c1`, the ED50 in the test listed under Cavia porcellus [1] amounted to 180 nM; in the test listed under Cavia porcellus [2] it was 16 nM.

In the case of `CCC(CC)(CC)/N=C(\NC#N)Nc1cc(Cl)cc(C#N)c1`, in the test with Canis familiaris, the AHA is reported as -18.9 delta mmHg. In addition, in the test listed under Cavia porcellus [4], the Activity came to 22%. Further, the ED50 was 5600 nM in the test filed under Cavia porcellus [1] and over 1000 nM in the test filed under Cavia porcellus [2]. In addition, the pEC50 in the test listed under Cavia porcellus [3] was 7.03.

Consider `CCC(C)(C)/N=C(\NC#N)Nc1cc(Br)cc(C#N)c1`, for which the ED50 in the test filed under Cavia porcellus [1] was 80 nM; in the test filed under Cavia porcellus [2], 11 nM. Besides, in the test filed under Cavia porcellus [3], the pEC50 is 7.49.

In the case of `CC(C)C(C)(C)/N=C(\NC#N)Nc1cc(Cl)cc(C#N)c1`, the AHA in the test with Canis familiaris was -20.3 delta mmHg. In addition, the ED50 in the test listed under Cavia porcellus [1] stood at 690 nM; in the test filed under Cavia porcellus [2], 190 nM. Moreover, the pEC50 in the test filed under Cavia porcellus [3] is 6.77.

With `CCC(C)(C)/N=C(\NC#N)Nc1cc(Cl)cc(C#N)c1`, the AHA in the test on Canis familiaris is given as -29.8 delta mmHg. The ED50 in the test listed under Cavia porcellus [1] was 280 nM; in the test listed under Cavia porcellus [2], 20 nM. In the test listed under Cavia porcellus [3], the pEC50 was 7.12.

As to `CCC(C)(C)/N=C(\NC#N)Nc1cc(F)cc(Cl)c1`, the ED50 in the test listed under Cavia porcellus [1] amounted to 260 nM; in the test filed under Cavia porcellus [2], 32 nM.

`CCC(CC)(CC)/N=C(\NC#N)Nc1cc(Cl)cc(Cl)c1` came in with an AHA with Canis familiaris of -15.9 delta mmHg. The Activity in the test listed under Cavia porcellus [4] is reported as under 5%. Further, the ED50 in the test listed under Cavia porcellus [1] was 30000 nM; in the test listed under Cavia porcellus [2], over 1000 nM.

Turning to `CC1(C)Oc2ccc(C#N)cc2[C@@H](N2CCCC2=O)[C@@H]1O` [CROMAKALIM], the AHA in the test on Canis familiaris is given as -37.8 delta mmHg. Besides, the ED50 in the test filed under Cavia porcellus [1] is 1200 nM; in the test listed under Cavia porcellus [2], 42 nM. Besides, the pEC50 in the test filed under Cavia porcellus [3] was 6.33.

Take `CC(N/C(=N\C#N)Nc1ccncc1)C(C)(C)C` (stereo unspecified) [PINACIDIL ANHYDROUS]: the ED50 in the test listed under Cavia porcellus [1] stood at 2300 nM; in the test listed under Cavia porcellus [2], 310 nM.
